The values below come from US20240400515A1, “NPM1-DEPENDING LEUKEMIA AGENTS” (UNIVERSIDAD COMPLUTENSE DE MADRID, priority 2021, published 2024).

Entries after “also recorded” stand apart in the source; their conditions may differ.

Data set [1] relates to OCI-AML3 (NPM1 C+). In words: Viability assay (WST-1) in OCI-AML3 cell line. It counts as cell-based. The settings on record: Homo sapiens, OCI-AML-3, viability percentage relative to vehicle, 24 h. How it is done:
(§1) Two different acute myeloid leukemia cell lines, OCI-AML3 (NPM1 C+) and MOLM13 (NPM1 C−) were obtained from the DSMZ cell repository (Braunschweig, Germany). Cell lines were expanded and cryogenically frozen upon acquisition to establish stocks in liquid nitrogen until use. Cultured cells were maintained at 37° C. in a humidified incubator in an atmosphere of 5% CO2 and passaged every 2-3 days. RPMI media (Gibco/Life Technologies; Grand Island, NY) supplemented with 10% fetal bovine serum (FBS) (Hyclone) and 1% penicillin/streptomycin was used.
(§2) The sensitivity of the compounds on OCI-AML3 (NPM1 C+) and MOLM13 (NPM1 C−) cell viability was assessed as an in-vitro acute myeloid leukemia (AML) model. Briefly, cells were seeded at a density of 2×10^4 cells/100 μL/well in 96-well plates. Cell lines were treated for 24 h with the test compound diluted in DMSO at the concentration of 5 μM or vehicle (DMSO). Then, 10 μL of WST-1 solution ((2-(4-iodophenyl)-3-(4-nitrophenyl)-5-(2,4-disulfophenyl)-2H-tetrazolium monosodium salt, Merck) were added and the cells were incubated for 4 h at 37° C. The absorbance was measured at 450 nm using an Asys UVM 340 microplate reader (Biochrom Ltd., Cambridge, UK). The background absorbance of blank wells containing only medium was subtracted from each test well. The data were reported as viability percentage relative to vehicle, obtained from two or three independent experiments performed in triplicate (Table 1).
On the technique in general: Tetrazolium dyes change colour on reduction, which living cells bring about.

Data set [2] concerns MOLM13 (NPM1 C−). Description: Viability assay (WST-1) in MOLM13 cell line. It counts as cell-based. The following applies: Homo sapiens, MOLM-13, viability percentage relative to vehicle, 24 h. Here is the method: as §1, §2
The test system of data set [3] is MOLM13 (NPM1 C−). In words: Viability assay (WST-1) in MOLM13 cell line. The settings on record: Homo sapiens, MOLM-13; dose-response curve, FIG. 1. It counts as cell-based.
The nature of data set [4]: Pharmacokinetic study in mice. It counts as in vivo, mouse. Also on record: in-vivo diffusion: dose or concentration left out as unconfirmed. The settings on record: FIG. 5A. Here is the method: Pharmacokinetic studies for compound Ic were performed. […] The area of the molecular peak allows to calculate the concentration of the compound present in mice serum at each time.

Data set [5] deals with healthy donor bone marrow cells. In words: Viability assay in CD34+ healthy donor bone marrow cells. The settings on record: Homo sapiens, Bone marrow cell, FIG. 2, read-out: IC50 healthy donors. It counts as cell-based. Here is the method: as §2
(§3) Primary cells from AML bone marrow patients CD34+ were isolated by anti-CD34+ microbeads (Miltenyi Biotech) from bone marrow of healthy donors and AML patients. Briefly, bone marrow samples were collected from AML and healthy patient pelvic bone, and were subjected to Ficoll-Paque density gradient separation to isolate mononuclear cells. […]

Another data set has as its system AML primary cells. In words: Colony formation unit assay in primary CD34+ cells from AML patients. The data set is classed as cell-based. The following applies: Homo sapiens, 336 h; methylcellulose culture, 14 days, FIG. 3; read-out: CFU-E: IC50 AML. Here is the method:
(§4) Sorted CD34^+ cells were plated in 24-well plates at a density of 3×10^4 cells per well in methylcellulose-based medium MethoCult GF H4434 (StemCell Technologies) containing stem cell factor (SCF), interleukin-3 (IL-3), erythropoietin (EPO) and granulocyte macrophage colony stimulating factor (GM-CSF). Test compound was added directly to the cells within the methylcellulose medium, and incubated at 37° C. in a humidified atmosphere in the presence of 5% CO2 for 14 days. Total cells from colonies formed were counted manually using an inverted microscope/phase contrast microscopy with trypan-blue. The data were presented as percentage of colonies or percentage of viable cells relative to DMSO, obtained from two or three independent experiments performed in duplicate.

The test system of another data set is OCI-AML3-ffLuc-GFP cells. In words: AML xenograft mouse model (OCI-AML3-ffLuc-GFP cells in NSG mice). The data set is classed as in vivo. The following applies: ip administration for 3 weeks, NSG mice with 1 million OCI-AML3-GFP-Luc cells, versus vehicle, FIG. 5B. How it is done: An AML xenograft mouse model was used for the study of in vivo efficacy. Female 6-8 week-old NOD.Cg-Prkdcscid II2rgtm1WjI/SzJ (NSG) mice (Vivotecnia, Madrid, Spain) were inoculated intravenously by tail vein injection with OCI-AML3-ffLuc-GFP cells (1×10^6). The animal experiment was performed according to the guidelines of the Institutional Animal Care and Use Committees of the Comunidad de Madrid, Spain, under approved protocol (PROEX 023/17). Four days later, mice were randomized into three groups of 10 animals: the first group received intraperitoneal injections of vehicle (0.9% saline solution) five days a week; the second group received 25 mg/kg of compound Ic intraperitoneally five times a week for four weeks; the third group received intraperitoneal injections of 50 mg/kg of compound Ic five times weekly for three weeks. Mice were monitored for tumor burden, distribution and engraftment every week by IVIS whole-body bioluminescence imaging. Bioimaging of […] burden in vivo was performed by IVIS Imaging system (Caliper Life Science). Before performing, Luciferin (D-luciferin monosodium salt, Thermofisher) was prepared in PBS and 150 mg/kg of Luciferin was injected i.p.; after 10 min, luminescence signal can be detected. The signal data was analyzed by the Living Image 4.2 (Caliper Life Science) software.

Data set [6] has as its system OCI-AML3 (NPM1 C+). Description: Viability assay (WST-1) in OCI-AML3 cell line. The data set is classed as cell-based. The settings on record: Homo sapiens, OCI-AML-3; dose-response curve, FIG. 1.
For data set [7], the target named is T1, NPM1 cytoplasmic form (NPM1 C+) (Homo sapiens, UniProt P06748).
T1 construct: endogenous in cells; host or cells: OCI-AML3 (DSMZ)
T1 sequence (P06748 with tags, fused parts or gaps limits assumed): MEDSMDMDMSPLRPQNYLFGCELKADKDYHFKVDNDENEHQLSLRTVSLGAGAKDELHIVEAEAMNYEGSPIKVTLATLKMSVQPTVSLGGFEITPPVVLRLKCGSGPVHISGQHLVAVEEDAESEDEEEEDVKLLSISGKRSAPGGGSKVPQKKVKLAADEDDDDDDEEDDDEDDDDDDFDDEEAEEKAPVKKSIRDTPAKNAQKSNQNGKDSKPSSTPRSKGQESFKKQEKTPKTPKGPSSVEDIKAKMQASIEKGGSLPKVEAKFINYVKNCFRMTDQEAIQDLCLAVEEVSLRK
In words: Effect on NPM1 cytoplasmic form (NPM1 C+) by confocal microscopy in OCI-AML3. The data set is classed as cell-based. The following applies: OCI-AML3, 10 µM, 48 h, FIG. 4. Here is the method: OCI-AML3 (NPM1 C+) cells were plated onto glass coverslips or Greiner Bio-One μClear black 96-well plate (7.5×10^4 cells per well) and treated with test compound for 48 h. Then, cells were fixed with 4% paraformaldehyde for 15 min, permeabilized with 0.1% Triton X-100 for 30 min, and blocked in 5% bovine serum albumin during 1 h at rt. Incubation with primary antibodies against NPM1 (7H10B9, NOVUS Biologicals) was carried out overnight at 4° C. Alexa-488 conjugated anti-mouse or anti-rabbit antibodies (Molecular Probes) were used for detection of the reported proteins by confocal microscopy. Nuclei were counterstained with 4′,6-diamidino-2-phenylindole (DAPI) bath. A total of 35 fields per well were acquired with a ×40 magnification lens for those samples run in the Opera HCS system (Perkin Elmer). Images were segmented using the DAPI staining and the coefficient of variation of NPM1 intensity per nucleus/cytoplasm was calculated using Definiens Developer XD software.

For data set [8], the system named is AML primary cells NPM1 WT. In words: Viability assay in primary CD34+ cells from AML patients, NPM1 WT. It counts as cell-based. The settings on record: Homo sapiens, FIG. 2. Here is the method: as §2, §3
Data set [9] deals with healthy donor bone marrow cells. Description: Colony formation unit assay in CD34+ healthy donor bone marrow cells. The data set is classed as cell-based. The following applies: Homo sapiens, Bone marrow cell, 336 h; methylcellulose culture, 14 days, FIG. 3; read-out: CFU-E: IC50 healthy donors. Here is the method: as §4
The test system of data set [10] is AML primary cells NPM1 mut. Description: Viability assay in primary CD34+ cells from AML patients, NPM1 mut. The data set is classed as cell-based. The following applies: Homo sapiens, FIG. 2. How it is done: as §2, §3

For orientation: viability means a per cent measure of how many cells are alive, often set against a control. Turning to `Cc1ccc([C@H]2Cc3[nH]c4ccccc4c3[C@@H](CCNC(C)C)[C@@H]2N)cc1` [Iy, (2R,3R,4R)-2-(4-Methylphenyl)-4-{2-[(propan-2-yl)amino]ethyl}-2,3,4,9-tetrahydro-1H-carbazol-3-amine], the viability at 5 µM in the data set with OCI-AML3 (NPM1 C+) [1] came out at 8%; in the data set on MOLM13 (NPM1 C−) [2] it was 4 ± 4%.
The IC50 is the concentration that gives 50% inhibition. Turning to `COc1ccc([C@H]2Cc3[nH]c4ccccc4c3[C@@H](CCNCC3CC3)[C@@H]2N)cc1` [Ic, (2R,3R,4R)-4-{2-[(Cyclopropylmethyl)amino]ethyl}-2-(4-methoxyphenyl)-2,3,4,9-tetrahydro-1H-carbazol-3-amine], the IC50 in the data set with MOLM13 (NPM1 C−) [3] worked out at 41.8 µM; in data set [5] it was 7.89 µM; in the data set with AML primary cells, 1.26 µM; with OCI-AML3 (NPM1 C+) [6], 7.59 µM; in data set [8], 5.03 µM; in data set [9], 4.6 µM. In addition, in data set [10], the concentration for half-maximal inhibition (IC50) was 1.24 µM. Further, the “levels in mouse peripheral blood” value in [4] (25 mg/kg intraperitoneal, first 6 h post-injection) is 200 to 600 ng/mL. Also, the in-vivo diffusion entry in data set [4] (plasma concentration 30 minutes to 6 hours after ip administration) is given as “correct in-vivo diffusion was observed”. The viability at 5 µM in the data set with OCI-AML3 (NPM1 C+) [1] is 40 ± 2%; in the data set on MOLM13 (NPM1 C−) [2], 55 ± 6%. The “AML cell (tumour) infiltration” value with OCI-AML3-ffLuc-GFP cells is given as “Tumour infiltration decrease was observed”. Further, the “Effect on NPM1 / NPM1C+ (confocal microscopy)” value in [7] is reported as “inhibition of the NPM1 cytoplasmic form (NPM1 C+) of the protein; also recorded: deplete NPM1 in OCI-AML3, especially NPM1C+ form”.
`N[C@@H]1[C@@H](c2ccc(OC(F)(F)F)cc2)Cc2[nH]c3ccccc3c2[C@H]1CCNCC1CC1` [If, (2R,3R,4R)-4-{2-[(Cyclopropylmethyl)amino]ethyl}-2-[4-(trifluoromethoxy)phenyl]-2,3,4,9-tetrahydro-1H-carbazol-3-amine]: the viability at 5 µM is 11 ± 4% in the data set with OCI-AML3 (NPM1 C+) [1] and 12 ± 3% with MOLM13 (NPM1 C−) [2].
On to `CN[C@@H]1[C@@H](c2ccc(C)cc2)Cc2[nH]c3ccc(Cl)cc3c2[C@H]1CCNCC1CC(F)(F)C1` [Iac, (2R,3R,4R)-6-Chloro-4-(2-{[(3,3-difluorocyclobutyl)methyl]amino}ethyl)-N-methyl-2-(4-methylphenyl)-2,3,4,9-tetrahydro-1H-carbazol-3-amine], for which the viability at 5 µM with OCI-AML3 (NPM1 C+) [1] is 6%; in the data set with MOLM13 (NPM1 C−) [2], 5 ± 1%.
In the case of `CNCC[C@@H]1c2c([nH]c3ccccc23)C[C@H](c2ccc(OC)cc2)[C@H]1N` [Iw, (2R,3R,4R)-2-(4-Methoxyphenyl)-4-[2-(methylamino)ethyl]-2,3,4,9-tetrahydro-1H-carbazol-3-amine], the viability at 5 µM in the data set on OCI-AML3 (NPM1 C+) [1] worked out at 27 ± 2%; with MOLM13 (NPM1 C−) [2], 40 ± 15%.
For `CN[C@@H]1[C@@H](c2ccc(C)cc2)Cc2[nH]c3ccc(Cl)cc3c2[C@H]1CCNCC1CC1` [Iak, (2R,3R,4R)-6-Chloro-4-{2-[(cyclopropylmethyl)amino]ethyl}-N-methyl-2-(4-methylphenyl)-2,3,4,9-tetrahydro-1H-carbazol-3-amine], the viability at 5 µM was determined as 1 ± 1% in the data set with OCI-AML3 (NPM1 C+) [1] and 7 ± 2% with MOLM13 (NPM1 C−) [2].
